This is an account of results in US8106077B2, “Compounds and methods for modulating FXR” (Eli Lilly and Company, priority 2007, dated 2012).

Assay [1] concerns LDLR−/− mice. The assay is described as follows: LDLR−/− serum lipid modulation. The class given is in vivo. The following applies: male LDLR−/− mice on western diet, 10 mg/kg, oral gavage once daily for seven days. As for the experimental part:
Acclimate animals for two weeks prior to study initiation. House mice individually in polycarbonate cages with filter tops, and maintain mice on a 12:12 hour light-dark cycle (lights on at 6:00 AM) at 21° C. Provide deionized water ad libitum and maintain for two weeks on ‘western diet’ TD 88137 Diet (42% fat, 0.15% cholesterol, Harlan Teklad) ad libitum. Optimize groups of five ten-week-old male LDLR−/− mice based on serum triglyceride and cholesterol levels. Dose groups once daily by oral gavage with various doses of the test compound dissolved in 5% EtOH/5% Solutol in NaCMC (1%), SLS (0.5%), antifoam (0.05%), Povidone (0.085%) for seven days. At the end of the seven-day dosing period, collect blood by cardiac puncture after asphyxiation in a CO2 chamber. […] Lipoproteins were separated by fast protein liquid chromatography, and cholesterol was quantitated with an in-line detection system. […] The colored product produced in the presence of cholesterol was monitored in the flow stream at 505 nm, and the analog voltage from the monitor was converted to a digital signal for collection and analysis. The change in voltage corresponding to change in cholesterol concentration was plotted vs. time, and the area under the curve corresponding to the elution of VLDL-C and HDL-C was calculated using Turbochrome (version 4.12F12) software from PerkinElmer (Norwalk, Conn.). […]

Assay [2] has as its target T1, FXR (Homo sapiens, UniProt Q96RI1).
T1 construct: Plate human hepatocarcinoma Huh7 cells grown in DMEM:F12 with 10% fetal bovine serum; endogenous in cells; host or cells: Huh7 (human hepatocarcinoma)
T1 sequence (Q96RI1 1-486): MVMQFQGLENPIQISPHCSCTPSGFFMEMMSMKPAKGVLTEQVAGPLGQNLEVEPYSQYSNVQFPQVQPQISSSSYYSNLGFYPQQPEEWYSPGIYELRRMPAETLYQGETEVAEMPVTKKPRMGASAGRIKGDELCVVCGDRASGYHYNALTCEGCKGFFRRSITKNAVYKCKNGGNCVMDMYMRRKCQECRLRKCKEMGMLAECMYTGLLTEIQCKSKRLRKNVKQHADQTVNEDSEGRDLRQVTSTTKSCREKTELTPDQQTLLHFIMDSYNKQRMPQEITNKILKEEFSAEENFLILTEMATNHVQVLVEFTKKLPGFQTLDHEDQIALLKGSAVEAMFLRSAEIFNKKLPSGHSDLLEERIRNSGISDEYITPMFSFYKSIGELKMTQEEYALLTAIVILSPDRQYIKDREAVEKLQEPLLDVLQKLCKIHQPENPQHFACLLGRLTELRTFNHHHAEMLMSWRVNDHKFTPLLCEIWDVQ
In words: bDNA assay for SHP mRNA. Format: cell-based. The following applies: human hepatocarcinoma Huh7 cells, 24 hours, bDNA signal; read-out: SHP gene activation EC50. From the text:
FXR is a key, direct transcriptional regulator of the Small Heterodimer Partner (SHP) gene, accession number NM_021969, an atypical member of the nuclear receptor family that lacks a DNA-binding domain. SHP interacts with several conventional and orphan members of the nuclear receptor superfamily, including retinoid receptors and thyroid hormone receptor. SHP inhibits transactivation potential of superfamily members with which it interacts. […] Since FXR directly transactivates transcription of the SHP gene, the SHP branched DNA method (bDNA) quantitates FXR activation by ligands. Thus, increased expression of SHP mRNA, as determined by increase bDNA signal, signifies engagement of FXR by an agonist.
Plate human hepatocarcinoma Huh7 cells grown in DMEM:F12 with 10% fetal bovine serum and in 96 well plate at the density of 1×10^5/well. After overnight incubation, treat the cells with test compounds at various concentrations for 24 hours. […]
Incubate the lysis buffer for 15-minute at 37° C., then transfer 100 μL of the lysate from each well to the corresponding wells of the capture plate. […] Label the mRNA to be measured by addition of 100 μL QuantiGene® label probe working buffer then incubate for 60 minutes at 46° C. […] Incubate the plates at 37° C. for up to 30 minutes and then read on a luminometer (Packard Fusion Alpha, 1 second detection) to detect the luminescent signal. […]

With `Cc1cc(CN(C)c2ccc(OCc3c(C(C)C)nnn3-c3c(Cl)cccc3Cl)cc2C)ccc1C(=O)O` [Example 13, 4-[({4-[5-Isopropyl-3-(2,6-dichloro-phenyl)-3H-[1,2,3]triazol-4-ylmethoxy]-2-methyl-phenyl}-methyl-amino)-methyl]-2-methyl-benzoic acid], in assay [1], the “lowering of total cholesterol” value turned out to be 60% and the lowering of triglycerides was 63%.

Take `Cc1cc(OCc2c(C(C)C)nnn2-c2c(Cl)cccc2Cl)ccc1N(C)Cc1ccc(C(=O)O)cc1` [Example 42, 4-[({4-[5-Isopropyl-3-(2,6-Dichloro-phenyl)-3H-[1,2,3]triazol-4-ylmethoxy]-2-methyl-phenyl}-methyl-amino)-methyl]-benzoic acid]: the EC50 in assay [2] was about 370 nM.

For orientation: EC50 means the concentration at which the effect is half-maximal.
